Patent publication US10081615B2, “Sulfamate derivative compounds for use in treating or alleviating pain” (Bio-Pharm Solutions Co., Ltd., priority 2013, dated 2018)
Where two headings read alike, the source gives them in different places.

Key:
SNL model = assay: Antiallodynic activity in the Chung model (SNL, Spinal Nerve Ligation; von Frey); assay type: in vivo, Sprague-Dawley rats
[1] = test system: acetic acid-induced writhes; assay: Writhing test (acetic acid); assay type: in vivo, ICR mice
Experimental: To examine the pain relief effect of the sulfamate derivative compounds, a writhing test was referring to Fischer, L. G. et al. (2008).
ICR mice (male, 24-28 g; Orient Bio, Korea) were habituated before test in test room for 1 hour. Animals were fasted for 2 hr before administration of compounds. […] All compounds were dissolved in a vehicle of 30% (v/v) PEG 400 or 20% (v/v) Tween 80. The control group was treated with the vehicle without compounds.
[…] Animals were habituated in the cage for 5 min. 5 min after habituation, the number of writhes (abdominal constriction) was counted for 15 minutes referring to Korzeniewska-Rybicka, I. et al. (1998) and compared with that of the control.

STZ-induced pain model = assay: Antiallodynic activity in the streptozotocin (STZ)-induced diabetic pain model (von Frey); assay type: in vivo, Sprague-Dawley rats; details: 0.5 h; for ED50: ip
Experimental: Male, Sprague-Dawley rats (200-220 g, Nara Bio, Korea) were habituated for 1 week before surgery and allowed free access to food and water throughout the experimentation. Room temperature and humidity were maintained at 24±2° C. and 50±10%, respectively.
The STZ-induced diabetic pain model was established with a modified method of Rakieten et al. (1963) and Bertrand Aubel et al. (2004). All animals were fasted for 4 to 6 hr prior to STZ injection. STZ (sigma, USA) was dissolved in 20 mM sodium citrate buffer, pH 5.5 (Sigma. USA) and intraperitoneally injected at 75 mg/kg, 4 ul/g by bodyweight into the rats. Sham controls were injected with same volume of 20 mM sodium citrate buffer, pH 5.5, and vehicle controls were identical to STZ model except for administration of vehicles without treatment. Rats were supplied with 10% sucrose water for 2 days to protect against sudden hypoglycemia, 3 days later, the induction of diabetes was checked by the measurement of tail vein blood glucose levels with a blood glucose meter. (LifeScan OneTouch Ultra, USA). […]
Tactile sensitivity (mechanical allodynia) was evaluated using von Frey monofilaments before and after treatment of the compound of Examples and the animals were included in the study only if the withdrawal threshold value was less than 4 g. […] The tactile sensitivity for the ipsilateral hind paw was measured using the up-and-down method (Dixon, 1980) with seven von Frey monofilaments (0.4, 1, 2, 4, 6, 8, and 15 g) in 3 trials. […] The 50% paw withdrawal threshold for each paw was calculated using the following formula: [Xth] log=[vFr] log+ky where [vFr] is the force of the last von Frey used, k=0.2249 which is the average interval (in log units) between the von Frey monofilaments, and y is a value that depends upon the pattern of withdrawal responses (Dixon, 1980). […]
The relative values compared to the sham (% control) were calculated and shown in Table 9, which show an antiallodynic effect of the compound of examples on STZ-induced pain model in rats.

[2] = Rattus norvegicus, po, 1 h, read-out: SNL model: ED50 mg/kg
[3] = Mus musculus, po, 0.5 h, read-out: Writh test: ED50 mg/kg

SMILES: CC1(C)Oc2ccccc2[C@@H](COS(N)(=O)=O)O1 [Example 2, ((S)-2,2-dimethyl-4H-benzo[d][1,3]dioxin-4-yl)methyl sulfamate]
- ED50 (SNL model; rat, oral, 1 h, read-out: SNL model: ED50): 4.5 mg/kg
- ED50 ([1]; mouse, oral, 1 h, read-out: Writh test: ED50): 152 mg/kg
- ED50 (STZ-induced pain model; rat, intraperitoneal, read-out: STZ model: ED50): 27.4 mg/kg

SMILES: CC1(C)Oc2ccccc2[C@H](COS([NH-])(=O)=O)O1.[Na+] [Example 58, Sodium (R)-(((2,2-dimethyl-4H-benzo[d][1,3]dioxin-4-yl)methoxy)sulfonyl)amide Trihydrate]
- ED50 (SNL model; [2]): 8.9 mg/kg

SMILES: CC1(C)Oc2ccccc2C(COS([NH-])(=O)=O)O1.[Na+] (stereo not drawn) [Example 60, Sodium (((2,2-dimethyl-4H-benzo[d][1,3]dioxin-4-yl)methoxy)sulfonyl)amide Trihydrate]
- ED50 (SNL model; [2]): 3.5 mg/kg
- ED50 [1, 3]: 21 mg/kg
- ED50 (STZ-induced pain model; Rattus norvegicus, read-out: STZ model: ED50 mg/kg): 16.1 mg/kg

SMILES: [NH-]S(=O)(=O)OC[C@H]1OC2(CCCC2)Oc2ccccc21.[Na+] [Example 65, Sodium (S)-(((4H-spiro[benzo[d][1,3]dioxine-2,1′-cyclopentan]-4-yl)methoxy)sulfonyl)amide]
- ED50 (SNL model; Rattus norvegicus, po, 0.5 h, read-out: SNL model: ED50 mg/kg): 3.4 mg/kg
- ED50 [1, 3]: 55.1 mg/kg
- STZ model: effect (%) compared to control (STZ-induced pain model; rat, intraperitoneal, 100 mg/kg administered): (25.7%, 0.5 h)

SMILES: CC1(C)Oc2ccccc2[C@H](COS([NH-])(=O)=O)O1.[K+] [Example 70, Potassium (R)-(((2,2-dimethyl-4H-benzo[d][1,3]dioxin-4-yl)methoxy)sulfonyl)amide]
- response vs control in vivo at 3.5 mg/kg (SNL model; Rattus norvegicus, po, 1 h, read-out: SNL model: effect (%) compared to control, rat, oral, 3.5 mg/kg administered, 1 h): 46.7%
- Writh test: effect (%) compared to control ([1]; mouse, oral, 80 mg/kg administered, 1 hr): (29.1%, 1 hr)
